According to ChEMBL document CHEMBL1201862, “PubChem BioAssay data set” (2004):
Calls of active or inactive are those of the source.

Columns and labels:
INS1 = experiment: beta cell apoptosis inhibitors, cytokine rescue, dose response, luminescence, retest (AID 449756); format: functional, cell-based; conditions: Rattus norvegicus;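 note: cell death triggered by IL-1 beta plus TNF-alpha plus IFN-gamma mixture; protective hits raise ATP signal compared with cytokine alone wells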
[1] = Luminescence Cell-Based Dose Retest to Confirm Inhibitors of Cancer Stem Cells. [Related pubchem assays (depositor defined):AID2717, AID2721]; format: functional; conditions: Homo sapiens
[2] = control 3'UTR Renilla luciferase suppression, dose response, counter-screen for Shn3 inhibitor project, cell-based, Clone20-Shn3RL, cherry-picked (AID 624133); format: functional
[3] = HepG2 cell cytotoxicity, dose response, cytotoxicity control for Shn3 inhibitor project, CellTiter-Glo, cherry-picked (AID 624134); format: functional, cell-based
[4] = Shn3 3'UTR reporter inhibitors, dose response, cell-based, Clone20 osteoblasts, firefly luciferase, cherry-picked (AID 624132); format: functional;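 note: firefly luciferase luminescence from reporter carrying the Shn3 3'UTR in osteoblasts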
[5] = target: RNA-editing ligase 1, mitochondrial (Trypanosoma brucei brucei, UniProt P86926); experiment: TbREL1 ligase inhibitors, dose response, biochemical, fluorescence, Trypanosoma brucei (AID 1117295); format: functional
Nonstructural protein 1 = Nonstructural protein 1 (Influenza A virus, UniProt Q194T2); format: functional, Influenza A virus (A/California/07/2009(H1N1))
Protein Tat = Protein Tat (Human immunodeficiency virus type 1 group M subtype B (isolate HXB2)(HIV-1), UniProt P04608); format: functional;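 note: tat binding to TAR RNA read out by fluorescence polarization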
[6] = target: E3 ubiquitin-protein ligase Mdm2 (Homo sapiens, UniProt Q00987); experiment: enhancers of MDM2-luciferase reporter signal, concentration-effect titration, project on inhibitors of MDM2 ubiquitin ligase, cellular assay, luminescent readout, 384-well plate format (AID 1394); format: functional;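 note: MDM2 E3 inhibitors raise luminescence so EC50 is for signal enhancement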
[7] = target: T1, E3 ubiquitin-protein ligase XIAP (Homo sapiens, UniProt P98170); experiment: Counter Screen using XIAP-Bir3 for Chemical Antagonists of Bir1/2 domains of IAP-family anti-apoptotic proteins. [Related pubchem assays (depositor defined):AID1018, AID1449, AID1514, AID1638, AID1749, AID1750, AID488957, AID488963]
[8] = target: T1, E3 ubiquitin-protein ligase XIAP; experiment: XIAP antagonists, biochemical, IAP family, fluorescence polarization (AID 1018); format: functional
[9] = target: Induced myeloid leukemia cell differentiation protein Mcl-1 (Homo sapiens, UniProt Q07820); experiment: MCL1-BIM BH3 interaction inhibitors, dose response, biochemical, fluorescence polarization, BIM-BH3 peptide, 1536-well (AID 2217)
Bcl-2-like protein 1 = Bcl-2-like protein 1 (Homo sapiens, UniProt Q07817); experiment: BCL-XL inhibitors, dose response, selectivity assay for MCL1 inhibitor project, biochemical, fluorescence polarization, 1536-well (AID 2218)
Large T antigen = Large T antigen (Simian virus 40, UniProt P03070); format: functional, Betapolyomavirus macacae;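 note: Confirmatory-stage PubChem screen for compounds that inhibit SV40 T antigen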
Estrogen receptor = target: T2, Estrogen receptor (Homo sapiens, UniProt P03372); experiment: potentiators of ERα–SRC-1 coactivator binding, dose response, biochemical, TR-FRET, ERα LBD (AID 737)
T2 sequence (P03372 whole entry): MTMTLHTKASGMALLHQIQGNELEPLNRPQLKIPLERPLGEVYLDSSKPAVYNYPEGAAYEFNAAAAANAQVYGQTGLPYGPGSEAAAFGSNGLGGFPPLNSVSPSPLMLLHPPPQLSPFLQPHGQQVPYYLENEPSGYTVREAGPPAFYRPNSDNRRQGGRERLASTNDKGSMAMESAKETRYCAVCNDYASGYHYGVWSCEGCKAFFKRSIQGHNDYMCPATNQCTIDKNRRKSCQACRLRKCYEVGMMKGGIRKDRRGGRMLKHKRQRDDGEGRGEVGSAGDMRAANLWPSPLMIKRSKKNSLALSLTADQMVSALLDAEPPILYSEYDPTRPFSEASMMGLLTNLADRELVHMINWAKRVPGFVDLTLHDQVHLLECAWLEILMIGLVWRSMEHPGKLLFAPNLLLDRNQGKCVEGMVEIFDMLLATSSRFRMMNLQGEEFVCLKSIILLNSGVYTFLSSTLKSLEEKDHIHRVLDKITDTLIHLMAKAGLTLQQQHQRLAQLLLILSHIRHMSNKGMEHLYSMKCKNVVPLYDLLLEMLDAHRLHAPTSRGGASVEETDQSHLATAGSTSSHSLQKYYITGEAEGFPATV

Estrogen receptor beta = Estrogen receptor beta (Homo sapiens, UniProt Q92731);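 note: recombinant ER-beta bound to coactivator SRC1 peptide in presence of estradiol agonist; inhibitors block coactivator peptide binding and lower the FRET signal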
[10] = target: T3, Oxysterols receptor LXR-beta (Homo sapiens, UniProt P55055); format: functional, cell-based;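 note: Cell-based luminescence dose-response assay of agonist activity at LXR, run as a confirmatory counterscreen to a daf-12 agonist screen; HEK293 cells with Gal4-LXR fusion and GAL4-driven luciferase reporter; agonist potency from rising luciferase signal of a Gal4-LXR reporter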
T3 sequence (P55055 whole entry): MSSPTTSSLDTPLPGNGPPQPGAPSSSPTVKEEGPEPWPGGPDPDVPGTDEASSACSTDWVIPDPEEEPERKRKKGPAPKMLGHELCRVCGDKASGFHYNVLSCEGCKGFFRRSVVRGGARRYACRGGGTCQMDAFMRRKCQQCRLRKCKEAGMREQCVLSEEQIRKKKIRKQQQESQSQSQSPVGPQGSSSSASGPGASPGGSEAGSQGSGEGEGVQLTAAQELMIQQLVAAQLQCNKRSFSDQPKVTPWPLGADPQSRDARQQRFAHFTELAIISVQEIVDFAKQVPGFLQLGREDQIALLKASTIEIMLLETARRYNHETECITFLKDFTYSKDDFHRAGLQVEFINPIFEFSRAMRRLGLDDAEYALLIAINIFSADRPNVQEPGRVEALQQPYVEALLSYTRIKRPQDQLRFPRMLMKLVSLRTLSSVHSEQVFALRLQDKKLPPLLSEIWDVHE

[11] = Luminescence Cell-Based Dose Response to Identify Activators of 5'UTR Stem-Loop Driven Prion Protein mRNA Translation in H4-C Neuroglioblastoma Cells. [Related pubchem assays: 1829 (Project Summary), 1814 (Primary HTS)]; format: functional
[12] = Luminescence Cell-Based Dose Response to Identify Activators of Luciferase Translation or Activity in H4-C Neuroglioblastoma Cells. [Related pubchem assays: 1829 (Project Summary), 1814 (Primary HTS)]; format: functional
[13] = Luminescence Cell-Based Dose Confirmation to Identify Activators of 5'UTR Stem-Loop Driven Alpha-Synuclein mRNA Translation in H4 Neuroglioblastoma Cells. [Related pubchem assays: 1829 (Project Summary), 1814 (Primary HTS)]; format: functional
H4 = experiment: Luminescence Cell-Based Dose Response HTS to Identify Activators of 5'UTR Stem-Loop Driven Prion Protein mRNA Translation in H4 Neuroglioblastoma Cells. [Related pubchem assays: 1829 (Project Summary), 1814 (Primary HTS)]; format: functional; conditions: Homo sapiens
[14] = target: T4, Tyrosine-protein phosphatase non-receptor type 7 (Homo sapiens, UniProt P35236); experiment: inhibitors of human HePTP phosphatase, […], biochemical, absorbance, leukemia target (AID 521); format: functional
T4 sequence (P35236 whole entry): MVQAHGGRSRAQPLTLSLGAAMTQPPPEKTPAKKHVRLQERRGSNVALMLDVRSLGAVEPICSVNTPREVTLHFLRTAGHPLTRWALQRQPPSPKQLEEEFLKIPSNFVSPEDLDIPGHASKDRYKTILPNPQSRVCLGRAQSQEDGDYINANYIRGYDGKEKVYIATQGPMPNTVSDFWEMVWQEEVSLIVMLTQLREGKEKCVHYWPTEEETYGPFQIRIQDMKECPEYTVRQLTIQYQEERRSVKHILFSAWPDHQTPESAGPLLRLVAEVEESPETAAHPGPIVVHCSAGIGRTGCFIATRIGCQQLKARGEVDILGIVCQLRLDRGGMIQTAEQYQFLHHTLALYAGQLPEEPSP

Kallikrein-7 = Kallikrein-7 (Homo sapiens, UniProt P49862); experiment: Fluorescence Intensity-based biochemical primary high throughput dose response assay to identify activators of kallikrein-7 (K7) zymogen.
[15] = Luminescence Cell-Based Dose Response HTS to Identify Activators of Luciferase Translation or Activity in H4 […] Cells. [Related pubchem assays: 1829 (Project Summary), 1814 (Primary HTS)]; format: functional
[16] = A375 melanoma cell viability loss, dose response, counter-screen for MITF inhibitor project, CellTiter-Glo luminescence, dry powder, set 4 (AID 624364); format: functional, cell-based; conditions: A-375;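 note: A375 melanoma cells are MITF independent so this is a counter screen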
[17] = A375 melanoma cell cytotoxicity, dose response, counter-screen for MITF inhibitor project, CellTiter-Glo luminescence, dry powder, set 2 (AID 624489); format: functional, cell-based; conditions: A-375;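 note: actives are compounds lowering A375 viability meaning general cytotoxicity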
[18] = cytotoxicity toward NIH3T3 fibroblasts, dose response, counter-screen, cell-based, ATP luminescence, mouse fibroblasts (AID 2010); format: functional;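 note: cells exposed to compound for about 90 hours before reading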
[19] = target: Glucose-6-phosphate 1-dehydrogenase (Homo sapiens, UniProt P11413); experiment: human G6PD enzyme inhibitors, dose response, selectivity assay for P. falciparum G6PD inhibitor project, biochemical, fluorescence (AID 504792); format: functional
[20] = inhibitors of intracellular T. cruzi replication, confirmation, NIH3T3 host cells, beta-gal luminescence (AID 2044); format: functional, cell-based;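 note: intracellular parasites grown in NIH/3T3 mouse fibroblasts as host cells; luminescent beta-galactosidase reporter signal from transgenic T. cruzi replicating inside host cells; inhibitors lower the luminescence signal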
Vero = experiment: cells; format: functional; conditions: Chlorocebus sabaeus
[21] = C. albicans growth with fluconazole, confirmation, fluorescence, retest (AID 2467); format: functional, cell-based
[22] = NIH-3T3 fibroblast cytotoxicity, dose response, cytotoxicity control, cell-based, fluorescence, Alamar Blue, secondary assay (AID 2327); format: functional;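 note: NIH-3T3 mouse fibroblasts cultured with fluconazole at 8 µg/mL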
[23] = target: T5, Mannose-6-phosphate isomerase (Homo sapiens, UniProt P34949); experiment: human PMI inhibitors, high substrate, primary screen, biochemical, fluorescence intensity, high mannose 6-phosphate (AID 1220)
T5 sequence (P34949 whole entry): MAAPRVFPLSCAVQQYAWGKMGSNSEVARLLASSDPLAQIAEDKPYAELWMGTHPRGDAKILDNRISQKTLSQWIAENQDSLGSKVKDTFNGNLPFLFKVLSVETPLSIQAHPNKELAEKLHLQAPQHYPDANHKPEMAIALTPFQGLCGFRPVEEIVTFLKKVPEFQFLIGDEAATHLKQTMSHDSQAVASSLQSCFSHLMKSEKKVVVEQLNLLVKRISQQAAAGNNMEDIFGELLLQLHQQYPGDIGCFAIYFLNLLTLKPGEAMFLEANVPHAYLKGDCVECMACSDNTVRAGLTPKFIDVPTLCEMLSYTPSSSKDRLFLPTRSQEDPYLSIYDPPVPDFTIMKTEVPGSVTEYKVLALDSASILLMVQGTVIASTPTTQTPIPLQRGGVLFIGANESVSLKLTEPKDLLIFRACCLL

T1 sequence (P98170 whole entry): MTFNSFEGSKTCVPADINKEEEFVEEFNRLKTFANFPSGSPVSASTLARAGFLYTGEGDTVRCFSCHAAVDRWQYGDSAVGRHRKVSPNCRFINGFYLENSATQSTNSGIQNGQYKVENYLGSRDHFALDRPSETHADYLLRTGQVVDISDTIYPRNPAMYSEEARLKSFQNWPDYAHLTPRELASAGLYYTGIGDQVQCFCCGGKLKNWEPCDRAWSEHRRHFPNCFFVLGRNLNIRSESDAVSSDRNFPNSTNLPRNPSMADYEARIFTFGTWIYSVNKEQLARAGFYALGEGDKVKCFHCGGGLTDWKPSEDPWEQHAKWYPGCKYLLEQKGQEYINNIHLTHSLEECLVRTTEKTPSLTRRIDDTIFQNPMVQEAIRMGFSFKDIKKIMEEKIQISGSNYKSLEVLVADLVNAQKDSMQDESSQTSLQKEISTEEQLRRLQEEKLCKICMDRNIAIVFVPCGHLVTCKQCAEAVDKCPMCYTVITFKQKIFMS
Sequence of RNA-editing ligase 1, mitochondrial (P86926 whole entry): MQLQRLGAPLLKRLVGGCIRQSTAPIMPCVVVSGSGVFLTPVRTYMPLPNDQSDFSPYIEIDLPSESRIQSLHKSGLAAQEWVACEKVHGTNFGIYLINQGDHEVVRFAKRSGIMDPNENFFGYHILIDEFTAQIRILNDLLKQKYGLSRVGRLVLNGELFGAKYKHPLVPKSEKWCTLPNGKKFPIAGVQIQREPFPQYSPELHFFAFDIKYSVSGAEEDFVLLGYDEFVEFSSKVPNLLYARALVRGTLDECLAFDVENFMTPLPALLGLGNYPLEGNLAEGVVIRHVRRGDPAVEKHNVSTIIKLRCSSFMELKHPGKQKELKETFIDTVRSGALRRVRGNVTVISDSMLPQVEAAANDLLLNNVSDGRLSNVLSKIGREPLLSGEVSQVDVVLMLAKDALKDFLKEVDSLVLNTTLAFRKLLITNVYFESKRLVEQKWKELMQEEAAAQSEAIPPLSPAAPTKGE
Sequence of Protein Tat (P04608 whole entry): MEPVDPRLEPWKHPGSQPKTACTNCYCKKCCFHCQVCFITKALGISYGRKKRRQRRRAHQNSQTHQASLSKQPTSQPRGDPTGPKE
Sequence of E3 ubiquitin-protein ligase Mdm2 (Q00987 whole entry): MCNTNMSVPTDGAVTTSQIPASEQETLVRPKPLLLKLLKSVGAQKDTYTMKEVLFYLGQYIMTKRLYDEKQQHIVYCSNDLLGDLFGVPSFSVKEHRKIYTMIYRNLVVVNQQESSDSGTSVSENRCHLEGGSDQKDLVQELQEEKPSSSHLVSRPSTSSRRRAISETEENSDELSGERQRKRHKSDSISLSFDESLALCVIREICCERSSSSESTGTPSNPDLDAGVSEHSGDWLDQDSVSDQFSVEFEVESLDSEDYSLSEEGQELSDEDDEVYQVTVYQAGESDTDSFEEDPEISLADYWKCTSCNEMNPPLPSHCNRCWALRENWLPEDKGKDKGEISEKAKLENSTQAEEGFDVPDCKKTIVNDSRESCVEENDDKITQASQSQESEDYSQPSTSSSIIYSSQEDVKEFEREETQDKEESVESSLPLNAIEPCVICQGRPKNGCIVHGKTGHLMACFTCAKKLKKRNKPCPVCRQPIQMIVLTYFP
Sequence of Kallikrein-7 (P49862 whole entry): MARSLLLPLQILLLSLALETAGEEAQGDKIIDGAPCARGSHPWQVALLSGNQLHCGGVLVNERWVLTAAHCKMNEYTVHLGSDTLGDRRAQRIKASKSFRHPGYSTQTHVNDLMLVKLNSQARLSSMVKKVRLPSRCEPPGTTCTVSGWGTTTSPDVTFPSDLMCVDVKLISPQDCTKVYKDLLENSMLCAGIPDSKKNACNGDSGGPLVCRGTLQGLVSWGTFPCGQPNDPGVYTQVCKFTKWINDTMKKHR
Sequence of Nonstructural protein 1 (Q194T2 whole entry): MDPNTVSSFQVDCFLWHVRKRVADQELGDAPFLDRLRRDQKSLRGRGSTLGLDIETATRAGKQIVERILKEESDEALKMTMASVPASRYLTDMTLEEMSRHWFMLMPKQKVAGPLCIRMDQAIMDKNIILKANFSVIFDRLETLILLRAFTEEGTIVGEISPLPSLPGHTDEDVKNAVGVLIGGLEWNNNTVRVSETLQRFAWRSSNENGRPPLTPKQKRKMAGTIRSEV
Sequence of Glucose-6-phosphate 1-dehydrogenase (P11413 whole entry): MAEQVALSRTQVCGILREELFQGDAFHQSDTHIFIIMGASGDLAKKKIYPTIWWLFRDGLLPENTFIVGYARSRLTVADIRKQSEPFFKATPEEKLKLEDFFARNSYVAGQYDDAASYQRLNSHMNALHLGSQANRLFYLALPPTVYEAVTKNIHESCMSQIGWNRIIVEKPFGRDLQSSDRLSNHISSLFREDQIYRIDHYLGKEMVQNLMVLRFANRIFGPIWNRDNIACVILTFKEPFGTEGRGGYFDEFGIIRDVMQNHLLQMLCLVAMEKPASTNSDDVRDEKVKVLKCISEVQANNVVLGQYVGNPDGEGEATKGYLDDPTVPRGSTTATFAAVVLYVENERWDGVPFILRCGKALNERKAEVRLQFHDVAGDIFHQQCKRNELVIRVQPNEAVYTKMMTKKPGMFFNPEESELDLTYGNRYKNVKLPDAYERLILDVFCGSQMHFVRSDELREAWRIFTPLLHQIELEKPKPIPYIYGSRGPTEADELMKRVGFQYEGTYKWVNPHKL
Sequence of Large T antigen (P03070 whole entry, the tested form may be a part): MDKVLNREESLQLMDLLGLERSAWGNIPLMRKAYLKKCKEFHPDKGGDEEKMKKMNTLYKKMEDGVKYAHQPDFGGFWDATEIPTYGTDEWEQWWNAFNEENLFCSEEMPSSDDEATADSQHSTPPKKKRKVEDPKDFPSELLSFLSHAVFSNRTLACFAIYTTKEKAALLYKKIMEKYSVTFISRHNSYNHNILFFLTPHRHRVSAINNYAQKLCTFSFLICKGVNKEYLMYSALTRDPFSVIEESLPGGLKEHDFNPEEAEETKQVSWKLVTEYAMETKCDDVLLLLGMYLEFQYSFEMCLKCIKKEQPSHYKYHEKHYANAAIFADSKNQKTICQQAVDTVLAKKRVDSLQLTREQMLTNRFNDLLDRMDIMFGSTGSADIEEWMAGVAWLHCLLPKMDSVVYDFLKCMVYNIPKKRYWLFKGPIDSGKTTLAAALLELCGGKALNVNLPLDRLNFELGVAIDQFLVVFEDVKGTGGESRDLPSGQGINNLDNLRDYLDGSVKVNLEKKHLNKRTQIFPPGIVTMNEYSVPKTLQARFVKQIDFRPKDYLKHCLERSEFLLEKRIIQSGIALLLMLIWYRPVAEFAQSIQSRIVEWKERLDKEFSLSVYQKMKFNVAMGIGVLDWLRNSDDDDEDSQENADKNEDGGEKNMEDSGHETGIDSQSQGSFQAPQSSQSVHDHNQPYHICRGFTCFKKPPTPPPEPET
Sequence of Induced myeloid leukemia cell differentiation protein Mcl-1 (Q07820 whole entry): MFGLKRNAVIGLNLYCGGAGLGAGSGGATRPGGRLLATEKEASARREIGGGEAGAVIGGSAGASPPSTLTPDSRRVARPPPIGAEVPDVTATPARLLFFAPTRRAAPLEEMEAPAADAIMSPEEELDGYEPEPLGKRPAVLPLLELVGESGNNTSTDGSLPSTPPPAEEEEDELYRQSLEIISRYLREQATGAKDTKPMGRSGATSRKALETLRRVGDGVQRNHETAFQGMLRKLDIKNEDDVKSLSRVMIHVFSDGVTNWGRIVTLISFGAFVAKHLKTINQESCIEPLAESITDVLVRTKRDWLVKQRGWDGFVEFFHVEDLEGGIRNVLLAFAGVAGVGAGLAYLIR
Sequence of Bcl-2-like protein 1 (Q07817 whole entry): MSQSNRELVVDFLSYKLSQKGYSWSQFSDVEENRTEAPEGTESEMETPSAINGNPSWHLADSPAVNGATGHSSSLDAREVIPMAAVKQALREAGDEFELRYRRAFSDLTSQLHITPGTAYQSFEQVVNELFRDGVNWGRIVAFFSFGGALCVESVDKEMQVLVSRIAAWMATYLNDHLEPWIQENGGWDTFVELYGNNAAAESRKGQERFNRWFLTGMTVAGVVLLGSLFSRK
Sequence of Estrogen receptor beta (Q92731 whole entry, the tested form may be a part): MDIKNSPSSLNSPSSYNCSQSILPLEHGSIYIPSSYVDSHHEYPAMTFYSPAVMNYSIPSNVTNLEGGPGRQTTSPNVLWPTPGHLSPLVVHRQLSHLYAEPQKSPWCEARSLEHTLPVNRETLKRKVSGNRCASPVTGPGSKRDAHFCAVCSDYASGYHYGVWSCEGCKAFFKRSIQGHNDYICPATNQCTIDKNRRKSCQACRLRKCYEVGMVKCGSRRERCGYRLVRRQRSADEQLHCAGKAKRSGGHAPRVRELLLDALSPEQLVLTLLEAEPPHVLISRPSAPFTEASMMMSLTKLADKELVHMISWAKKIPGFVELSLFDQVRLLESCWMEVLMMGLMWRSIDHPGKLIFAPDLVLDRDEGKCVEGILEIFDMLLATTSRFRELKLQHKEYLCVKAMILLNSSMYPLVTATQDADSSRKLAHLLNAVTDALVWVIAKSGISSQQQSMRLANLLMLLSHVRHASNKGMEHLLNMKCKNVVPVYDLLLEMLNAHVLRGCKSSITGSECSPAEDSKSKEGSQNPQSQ

COc1ccc(C(CCNCc2ccc(OC(C)C)cc2)c2ccccc2OC)cc1 (configuration not stated)
AC50 (INS1): 7.21 µM (active) | AC50 [1]: 5.99 µM (active) | AC50 [2]: 4.38 µM (active) | AC50 [3]: 15.3 µM (active) | AC50 [4]: 6.44 µM (active) | IC50 [5]: > 96.6 µM (inactive)

Oc1ccccc1C=Nc1ccc(F)c2c(O)[nH]nc12
IC50 (Nonstructural protein 1): 41.6 µM (active) | IC50 (Protein Tat): 3.3 µM (inconclusive)

Cc1cc(NC(=O)CSc2nc(C(C)C)nc3c2c(=O)n(C)c(=O)n3C)no1
EC50 [6]: 12.3 µM (not active)

CC(=O)Nc1ccc(S(=O)(=O)N(C)CC(=O)OCC(=O)N2CCc3ccccc32)cc1
EC50 [6]: 149 µM (not active)

COc1ccccc1Cn1c(=O)c2ccccc2n2c(SCC(=O)N3CCCCC3)nnc12
IC50 [7]: > 100 µM (inactive) | IC50 [8]: > 100 µM (not active)

O=C(O)C1Nc2ccc(OC(F)(F)F)cc2C2C=CCC12 (configuration not stated)
IC50 [9]: 8.63 µM (active) | IC50 (Bcl-2-like protein 1): 60.6 µM (not active) | IC50 (Large T antigen): 12.7 µM (active)

Cc1ccc(NC(=O)CSc2nnc(-c3cnccn3)n2Cc2ccco2)cc1C
EC50 (Estrogen receptor): 37.6 µM (not active)

CN(C1CCCCC1)S(=O)(=O)c1ccc(S(=O)(=O)N2CCN(CCC#N)CC2)cc1
IC50 (Estrogen receptor beta): > 50 µM (not active)

CC(=O)Nc1ccc(NC(=O)CSCc2cnn(-c3ccccc3)c2-n2cccc2)cc1
IC50 (Protein Tat): > 100 µM (active)

Cc1cc(/C=C2\SC(=S)N=C2O)c(C)n1-c1ccccc1
EC50 [10]: > 67.6 µM (inactive)

Cc1cc(/C=C2\SC(=S)NC2=O)c(C)n1-c1ccccc1
EC50 (cells): > 67.6 µM (inactive)

CC(C)(C)c1ccc(OCCn2ccccc2=O)cc1
EC50 [11]: 546 nM (active) | EC50 [12]: 237 nM (active) | EC50 [13]: 668 nM (active) | EC50 (H4): < 0.1 µM (active)

CCn1cc(C(=O)NCC2CCCO2)c(=O)c2cc(S(=O)(=O)N3CCC(C)CC3)ccc21 (configuration not stated)
IC50 [14]: > 100 µM (not active)

CCc1ccccc1NC(=O)CSc1nc2nnc(C)c-2c(N)n1-c1ccc(OC)cc1
EC50 (Kallikrein-7): 4.1 µM (active)

O=c1nc(NCc2ccco2)sc2ncccc12
IC50 [7]: > 100 µM (inactive) | IC50 [8]: > 100 µM (not active)

O=C(Nc1ncc2c(n1)-c1ccccc1OC2)c1ccc(F)cc1
EC50 (Kallikrein-7): > 69.5 µM (inactive)

O=C(NC1=NCCS1)c1ccc(Cl)cc1
EC50 [11]: 744 nM (active) | EC50 [15]: < 100 nM (inconclusive) | EC50 [12]: 401 nM (active) | EC50 [13]: 240 nM (active) | EC50 (H4): 101 µM (active)

COc1ccc(OC)c(C2C(C(=O)Nc3ccccc3OC)=C(C)Nc3nc(CCCO)nn32)c1 (configuration not stated)
IC50 [14]: > 100 µM (not active)

O=C1C(NS(=O)(=O)c2ccc(Br)s2)=C(N2CCCCC2)C(=O)c2ccccc21
AC50 [16]: > 70 µM (inactive) | AC50 [17]: > 70 µM (inactive)

COC(=O)C1=C(C)N(Cc2ccc(C(F)(F)F)cc2)C(NCc2cccc(C(F)(F)F)c2)=NC1c1ccccc1C(F)(F)F (configuration not stated)
IC50 [5]: > 96.6 µM (inactive)

COc1cccc(C2=C(NC(=O)c3ccccc3)C(=O)c3ccccc3C2=O)c1
AC50 [16]: 21 µM (active) | AC50 [17]: 10.5 µM (active)

COc1cc(CNc2ccc(N3CCCC3)cc2)cc(Cl)c1OC
EC50 [18]: > 30 µM (not active) | IC50 [19]: > 80 µM (inactive) | EC50 [20]: 2.95 µM (active) | CC50 (Vero): 4.57 µM (active) | EC50 [21]: > 38 µM (not active) | EC50 [22]: 48.1 µM (inconclusive) | IC50 [23]: > 50 µM (not active)
